Laboratory results as given in US20250248940A1, “Biopolymer Formulations for Drug Delivery” (11584022 Canada Inc., priority 2022, published 2025).

Assay: release of API into water from dried API-biopolymer pellets, measured by UV/VIS spectroscopy
Type: physicochemical
Conditions: from the dry biopolymer matrix, versus acetyl salicylic acid
Procedure: Briefly biopolymer suspensions were produced with a known quantity of API added to the suspensions. The suspensions with API were then dried as pellets. These pellets were then added to a known volume of water and aliquots of the water were removed periodically to determine the rate of release of the API. The API concentration was measured using UV/VIS spectroscopy. The sample was dried for 10 hours in air and 3 hours in the oven at 50° C. The acetaminophen concentration in dried materials was 29.58% w/w. This figure represents release of acetaminophen into water from the dried acetaminophen doped chitin suspension, where the concentration of acetaminophen, in g/L, is plotted against time, in minutes.

CC(=O)Nc1ccc(O)cc1 [acetaminophen]
release rate compared between drugs: slower release
